Data published in patent US20100111965A1, “COMBINATION THERAPY” (FUSION ANTIBODIES LIMITED, priority 2006, published 2010).
“And” between values parts separate entries of the source, which are not always exact repeats. Equal values may be shown once.

What was measured:
HCT116 = test: RT-PCR of AREG RNA in HCT116 cells after chemotherapy; assay type: cell-based, human; conditions: 48 h after treatment, 7.5 μM
Experimental: FIG. 1B illustrates analysis of AREG and beta actin RNA expression in HCT116 +/+ with/without a 48 hour CPT11 treatment. RNA levels were analyzed following 35 cycles of PCR to determine relative differences in expression between treated and untreated samples;
(§1) FIG. 6 illustrates AREG upregulation following chemotherapeutic challenge in A) HT29, B) HCT116 and C) MDA-MB231 cells. Cells were treated with/without chemotherapy for 48 hours. RT-PCR was performed with 1 μg of total RNA using primer pairs specific for the human AREG gene or GAPDH. The PCR products were separated on 1.5% agarose gel electrophoresis and visualized by ethidium bromide staining.
Cells in a log phase of growth were seeded into T75 flask at ˜20% confluence and incubated overnight to allow adherence to the plate. […] Chemotherapy was substituted with saline in control flasks. After different time exposure to chemotherapy the cells were harvested, washed 3 times in PBS and total RNA was isolated using the RNA TAT-60 reagent according to the manufacturer instructions. […]
Semi quantitative RT-PCR was performed using a PTC 225 Gradient Cycler (MJ Research Incorporated. The PCR mixture, in a final volume of 25 μL, contains 12.5 μL of 2× Biomix (Bioline, UK), 2 μL of primers (10 μmol/L), 1 μL of cDNA and 9.5 μL of dH2O). […]

H460 lung cancer cells = test: RT-PCR of AREG RNA in H460 lung cancer cells after chemotherapy; assay type: cell-based; conditions: 48 hour treatment
Experimental: FIG. 5 illustrates analysis of AREG and beta actin RNA expression in H460 lung cancer cells with/without either a 48 hour CPT11 treatment or 5-Fu treatment. RNA levels were analyzed following 35 cycle of PCR to determine relative differences in expression between treated and untreated samples.
(§2) Cells in a log phase of growth were seeded into T75 flask at ˜20% confluence and incubated overnight to allow adherence to the plate. […] Chemotherapy was substituted with saline in control flasks. After different time exposure to chemotherapy the cells were harvested, washed 3 times in PBS and total RNA was isolated using the RNA TAT-60 reagent according to the manufacturer instructions.
(§3) Reverse transcription was performed with 2.5 μg of RNA using a High Capacity cDNA Archive kit (Applied Biosystem) according to the instruction of the manufacturer.
(§4) Semi quantitative RT-PCR was performed using a PTC 225 Gradient Cycler (MJ Research Incorporated. The PCR mixture, in a final volume of 25 μL, contains 12.5 μL of 2× Biomix (Bioline, UK), 2 μL of primers (10 μmol/L), 1 μL of cDNA and 9.5 μL of dH2O). PCR conditions were initial denaturation step of 95 C for 10 minutes, followed by 35 cycles of 95° C. for 30 sec for denaturation; as annealing step 55° C. for 30 sec; and extension at 72° C. for 90 sec, with a final extension of 72° C. for 10 minutes. […]

RKO +/+ = test: Semi quantitative RT-PCR of AREG RNA in RKO cells after chemotherapy; assay type: cell-based, human; conditions: 48 h after treatment, 7.5 μM
Experimental: FIG. 1A illustrates analysis of AREG and beta actin RNA expression in RKO +/+ with/without either a 48 hour CPT11 treatment or 5-Fu treatment. RNA levels were analyzed following 35 cycle of PCR to determine relative differences in expression between treated and untreated samples;
as §2, §3, §4

[1] = tested on: MDA-MB231 breast carcinoma cell line; test: RT-PCR of AREG mRNA in MDA-MB231 cells after chemotherapy; assay type: cell-based, human; conditions: IC50 dose, 48 hours
Experimental: as §1
For Example 2, Total RNA was isolated from cells following the RNA STAT-60 manufacturer's protocol (Biogenesis, Poole, U.K.). RT-PCR was performed with 1 μg of total cell RNA using a Promega ImProm-II™ Reverse Transcription System (Promega, Southhampton, UK). PCR was performed using primer pairs specific for human AREG (Forward 5′-[…]-3′(SEQ ID No:19), Reverse 5′-[…]-3′ (SEQ ID No:20)), human HB-EGF (Forward 5′-[…]-3′(SEQ ID No:21), Reverse 5′-[…]-3′(SEQ ID No:22)), human GAPDH as a control (Forward 5′[…]-3′(SEQ ID No:23), Reverse 5′ […]-3′(SEQ ID NO:24)) and human Beta-actin as a control (Forward 5′-[…]-3′(SEQ ID No:25), Reverse 5′-[…]-3′(SEQ ID No:26)).
The PCR products were separated on 1.5% agarose gel and visualized by ethidium bromide staining.

[2] = tested on: HCT116+/+ cells (In Vivo); test: Microarray analysis of EGF-family mRNA in HCT116 xenograft tumours after chemotherapy; parameters: species or system human; conditions: for EGF (Epidermal Growth factor) fold change, microarray: drug treated against untreated control
Experimental: 6-8 week old female SCID mice were implanted with 2×10^6 HCT116+/+ human colorectal adenocarcinoma cells into each flank. HCT116 cells in a log phase of growth were harvested, washed in PBS and resuspended in HBSS. They were mixed with equal volumes of matrigel to give a final concentration of 5×10^6 cells/ml. Mice were randomly separated into treatment groups on day 5 after implantation and treated with different doses of chemotherapy. […] All drugs were administered through a bolus injection. Animals were sacrificed at various time points and tumours were removed for analysis
Approximately 10 μg total RNA was isolated from tumour cells and was used as the starting material for preparation of probes. The microarray analysis was carried using an Affymetrix U133 plus 2.0 GeneChip®. Probes were prepared as per the manufacturers recommendations.
After RNA extraction, samples were reverse transcribed into cDNA which was then purified on a column prior to labelling. The probes were then amplified and labelled using Oligo(dT)-primed in vitro transcription generating high-yield, biotinylated targets from the 3′-end. […] For the next stage the fragmented cRNA was hybridised to the array for 16 hours at 45° C. Following this the array was washed and stained with streptavidin-phycoerythrin (SAPE) using a fluidics station and scanned using a GeneChip® Scanner 3000. Stained images were then analysed.
Initially the data was scaled using the Affymetrix® GCOS (Genechip® Operating System) software, to assess quality metrics. The data was then normalized against a control sample. After normalisation the data was filtered removing all genes where the noise level obscured signal and were fold change was […] 2-fold. Finally a confidence filter where the t-test p-value were used to filter the genes to derive lists of statistically robust data.
Each treatment type and timepoint was carried out in triplicate and statistics and filtering were applied to the whole data set from each condition.
A xenograft study was set up to examine the genetic response to 2 different chemotherapeutic drugs 24 and 48 hours after treatment. Each mouse was implanted with equal volumes of HCT116 cells and each condition was performed in triplicate.
RNA isolated from tumours in each of the 12 mice was subjected to microarray analysis to measure mRNA expression levels. Fold change values for drug treated against untreated control is presented.

[3] = HCT116+/+ xenograft, 70 mg/kg bolus, 24 h, vs untreated control
[4] = HCT116+/+ xenograft, 70 mg/kg bolus, 24 h, vs untreated control, 70 mg/kg
[5] = HCT116 xenograft, treated by 5-FU, time not stated

In the case of `O=c1[nH]cc(F)c(=O)[nH]1` [5-FU, 5-Fluorouracil], the “AREG RNA expression (RT-PCR)” value (HCT116) is reported as “upregulation”, the “AREG RNA expression (RT-PCR, 35 cycles)” value (H460 lung cancer cells) is reported as “enhanced expression of AREG” and the “AREG RNA expression (RT-PCR)” value (RKO +/+) is reported as “upregulation”. The “AREG mRNA expression (RT-PCR)” value [1] was “up-regulation”, the “EGF (Epidermal Growth factor) fold change, microarray” value ([2]; HCT116+/+ xenograft, 70 mg/kg bolus, 24 h) was −2.4 fold and the “NRG3 fold change, microarray” value [2, 3] was −2.1 fold. For the same compound, the “NRG4 fold change, microarray” value [2, 3] was −1.1 fold, the “HB-EGF (Heparin-Binding EGF-like growth factor) fold change, microarray” value [2, 4] was 1.6 fold and 3.1 fold and the “TGF alpha (Transforming Growth factor alpha) fold change, microarray” value [2, 4] was 1.3 fold and 1.8 fold. The “EGF (Epidermal Growth factor) fold change, microarray” value ([2]; HCT116+/+ xenograft, 70 mg/kg bolus, 48 h) was −3.8 fold, the “NRG4 fold change, microarray” value ([2]; HCT116+/+ xenograft, 70 mg/kg bolus, 48 h, vs untreated control) was −1.8 fold and the “fold change values for AREG mRNA expression, treated against untreated controls” value ([2]; HCT116 xenograft, 70 mg/kg, after 48 hours) was 2.1 fold. The “HB-EGF regulation in micro-array analysis” value [2, 5] was “up-regulation” and the “TGF regulation in micro-array analysis” value [2, 5] was “up-regulation”.
